Active and inactive are the calls of the source. The rule behind the calls is not given here. Numbered stars: 1 amine (or outer) side, 2 acyl side, 3 side chain; on linkers, the order of the positions; unused ones are H or OH. Square brackets hold non-standard residues; d marks the D form. Peptide text beside a SMILES is read from it. X1 = CC(C)=CC[C@@]12C[C@@H](C(=O)[*:2])N([*:1])[C@@H]1Nc1ccccc12
How the values were obtained:
[1] = test system: MOLT-4; test: Cytotoxicity against human MOLT4 cells measured after 24 hrs by MTT assay; type: functional, cell-based; details: MOLT-4, 24 h
[2] = test system: OCI-AML2; test: Cytotoxicity against human OCI-AML2 cells measured after 24 hrs by MTT assay; type: functional, cell-based; details: OCI-AML2, 24 h
[3] = test system: MCF7; test: Cytotoxicity against human MCF7 cells measured after 24 hrs by MTT assay; type: functional, cell-based; details: MCF7, 24 h
[4] = test system: Staphylococcus aureus; test: Antibacterial activity against methicillin-resistant Staphylococcus aureus assessed as bacterial growth inhibition at 100 uM measured after 16 hrs by microplate reader assay; type: functional, organism-based
[5] = test system: Escherichia coli; test: Antibacterial activity against Escherichia coli assessed as bacterial growth inhibition at 100 uM measured after 16 hrs by microplate reader assay; type: functional, organism-based
[6] = test system: Klebsiella pneumoniae; test: Antibacterial activity against Klebsiella pneumoniae assessed as bacterial growth inhibition at 100 uM measured after 16 hrs by microplate reader assay; type: functional, organism-based
[7] = Inhibition of quorum sensing system in Pseudomonas aeruginosa PAO1 transfected with lasB-GFP at 10 uM by measuring reduction in fluorescence intensity up to 16 hrs by fluorescence assay relative to control

CC(C)=CC[C@@]12C[C@H]3C(=O)N[C@@H](CC(C)C)C(=O)N[C@@H](Cc4ccccc4)C(=O)N4CCC[C@H]4C(=O)N[C@@H](CC(C)C)C(=O)N4CCC[C@H]4C(=O)N[C@@H](CC(C)C)C(=O)N4CCC[C@H]4C(=O)N[C@@H](C(C)C)C(=O)N4CCC[C@H]4C(=O)N3[C@@H]1Nc1ccccc12 (cyclo(FPLPLPVP[X1]L))
IC50 [1]: 5.75 µM | IC50 [2]: 8.2 µM | IC50 [3]: 19 µM | Activity [4]: inactive | Activity [5]: inactive | Activity [6]: inactive | inhibition [7]: 26%
